Experimental data taken from ChEMBL document CHEMBL5226317, “Camptothecin's journey from discovery to WHO Essential Medicine: Fifty years of promise” (Eur J Med Chem, 2021).
Structures can show the parent of a compound that is named as a salt.

How the values were obtained:
Format in all cases: functional, cell-based
NSCLC = experiment: Cytotoxicity against human NSCLC cells
A549 [1] = experiment: Cytotoxicity against human A549 cells incubated for 48 hrs by SpectraMax M5 microplate reader analysis; details: A549, 48 h
A549 [2] = experiment: Cytotoxicity against human A549 cells
HT-29 [3] = experiment: Cytotoxicity against human HT-29 cells
MSTO-211H = experiment: Antiproliferative activity against human MSTO-211H cells incubated for 72 hrs
HeLa = experiment: Antiproliferative activity against human HeLa cells incubated for 72 hrs
A-431 = experiment: Antiproliferative activity against human A-431 cells incubated for 72 hrs; details: A-431, 72 h
NCI-H460 = experiment: Antiproliferative activity against human NCI-H460 cells incubated for 72 hrs; details: NCI-H460, 72 h
Jurkat = experiment: Anticancer activity against human Jurkat cells incubated for 48 hrs by MTT assay
HL-60 = experiment: Anticancer activity against human HL-60 cells incubated for 48 hrs by MTT assay; details: HL-60, 48 h
DU-145 = experiment: Anticancer activity against human DU-145 cells incubated for 48 hrs by MTT assay; details: DU-145, 48 h
HT-29 [4] = experiment: Anticancer activity against human HT-29 cells incubated for 48 hrs by MTT assay; details: HT-29, 48 h
HCT-116 = experiment: Anticancer activity against human HCT-116 cells incubated for 48 hrs by MTT assay; details: HCT-116, 48 h
HepG2 [5] = experiment: Anticancer activity against human HepG2 cells incubated for 48 hrs by MTT assay; details: HepG2, 48 h
A549 [6] = experiment: Anticancer activity against human A549 cells incubated for 48 hrs by MTT assay; details: A549, 48 h
H322 = experiment: Anticancer activity against human H322 cells incubated for 48 hrs by MTT assay; details: NCI-H322, 48 h
HCT-8 [7] = experiment: Cytotoxicity against human HCT-8 cells
HCT-8 [8] = experiment: Antiproliferative activity against human HCT-8 cells incubated for 48 hrs by CCK-8 assay; details: HCT-8, 48 h
SGC-7901 = experiment: Antiproliferative activity against human SGC-7901 cells incubated for 48 hrs by CCK-8 assay; details: SGC-7901, 48 h
HepG2 [9] = experiment: Antiproliferative activity against human HepG2 cells incubated for 48 hrs by CCK-8 assay; details: HepG2, 48 h
KB [10] = experiment: Antiproliferative activity against human KB cells incubated for 48 hrs by CCK-8 assay
A549 [11] = experiment: Antiproliferative activity against human A549 cells measured after 72 hrs by colorimetric assay; details: A549, 72 h
KB [12] = experiment: Antiproliferative activity against human KB cells measured after 72 hrs by colorimetric assay
[13] = Antiproliferative activity against human KB-VIN cells measured after 72 hrs by colorimetric assay; details: KBVIN
A549 [14] = experiment: Cytotoxicity against human A549 cells incubated for 48 hrs by MTT assay; details: A549, 48 h
NCI-H1299 = experiment: Cytotoxicity against human NCI-H1299 cells incubated for 48 hrs by MTT assay; details: NCI-H1299, 48 h
NCI-H520 = experiment: Cytotoxicity against human NCI-H520 cells incubated for 48 hrs by MTT assay; details: NCI-H520, 48 h
SBC-5 = experiment: Cytotoxicity against human SBC-5 cells incubated for 48 hrs by MTT assay; details: SBC-5, 48 h
[15] = Cytotoxicity against human NCI-H196 cells incubated for 48 hrs by MTT assay; details: NCI-H196, 48 h
SBC-3 = experiment: Cytotoxicity against human SBC-3 cells incubated for 48 hrs by MTT assay; details: SBC-3, 48 h
K562 = experiment: Anticancer activity against human K562 cells incubated for 72 hrs by MTT assay; details: K562, 72 h
SK-OV-3 = experiment: Anticancer activity against human SK-OV-3 cells incubated for 72 hrs by MTT assay; details: SK-OV-3, 72 h
[16] = Anticancer activity against human SPCA1 cells incubated for 72 hrs by MTT assay; details: SPCA1, 72 h
SW 1116 = experiment: Anticancer activity against human SW 1116 cells incubated for 72 hrs by MTT assay; details: SW 1116, 72 h
U-251 = experiment: Anticancer activity against human U-251 cells incubated for 72 hrs by MTT assay; details: U-251, 72 h
[17] = Antiproliferative activity against human KB-VIN cells; details: KBVIN
A549 [18] = experiment: Antiproliferative activity against human A549 cells
MDA-MB-231 = experiment: Antiproliferative activity against human MDA-MB-231 cells
KB [19] = experiment: Antiproliferative activity against human KB cells
[20] = Antiproliferative activity against human KB-VIN cells assessed as reduction in cell viability; details: KBVIN
MCF7 = experiment: Antiproliferative activity against human MCF7 cells

SMILES: CC[C@@]1(O)C(=O)OCc2c1cc1n(c2=O)Cc2cc3cc4c(cc3nc2-1)OCO4
- EC50 (NSCLC): 1 nM
- IC50 (A549 [1]): 83 nM

SMILES: CC[C@@]1(OC(=O)CCC(=O)O[C@@H]2O[C@@H](C)[C@H](OC(C)=O)[C@@H](OC(C)=O)[C@H]2OC(C)=O)C(=O)OCc2c1cc1n(c2=O)Cc2cc3cc4c(cc3nc2-1)OCO4
- IC50 (A549 [1]): 83 nM

SMILES: CCc1c2c(nc3ccc(OC)cc13)-c1cc([C@@](O)(CC)C(=O)NCCCN3CCOCC3)c(CO)c(=O)n1C2
- IC50 (A549 [2]): 20 nM
- IC50 (HT-29 [3]): 20 nM

SMILES: CC[C@@]1(O)C(=O)OCc2c1cc1n(c2=O)Cc2c-1nc1ccccc1c2CSSCc1c2c(nc3ccccc13)-c1cc3c(c(=O)n1C2)COC(=O)[C@]3(O)CC
- IC50 (MSTO-211H; Homo sapiens, MSTO-211H, 72 h): 2.2 nM
- IC50 (MSTO-211H; msto-211h): 2 nM
- IC50 (HeLa): 9 nM
- IC50 (A-431): 21 nM
- IC50 (NCI-H460): 6 nM

SMILES: CC[C@@]1(O)C(=O)OCc2c1cc1n(c2=O)Cc2cc3cc(OCC(=O)OC(C)(C)C)ccc3nc2-1
- IC50 (Jurkat): 40 nM
- IC50 (HL-60): 40 nM
- IC50 (DU-145): 60 nM
- IC50 (HT-29 [4]): 70 nM
- IC50 (HCT-116): 70 nM
- IC50 (HepG2 [5]): 160 nM
- IC50 (A549 [6]): 60 nM
- IC50 (H322): 460 nM

SMILES: CC[C@@]1(O)C(=O)OCc2c1cc1n(c2=O)Cc2cc3c(/C=C(\C)C(=O)OC)c(O)ccc3nc2-1
- IC50 (HCT-8 [7]): 30 nM
- IC50 (HCT-8 [8]): 30 nM
- IC50 (SGC-7901): 262 nM
- IC50 (HepG2 [9]): 176 nM
- IC50 (KB [10]): 730 nM

SMILES: CC[C@@]1(O)C(=O)OCc2c1cc1n(c2=O)Cc2c-1nc1ccccc1c2CS
- IC50 (MSTO-211H; Homo sapiens, MSTO-211H, 72 h): 1.85 nM
- IC50 (MSTO-211H; msto-211h): 1.8 nM
- IC50 (HeLa): 8 nM
- IC50 (A-431): 110 nM
- IC50 (NCI-H460): 27 nM

SMILES: CCc1c2c(nc3ccccc13)-c1cc3c(c(=O)n1C2)COC(=O)[C@]3(CC)OC(=O)CN/C(Cc1ccc(OC)cc1)=N\S(=O)(=O)c1ccc(C)cc1
- IC50 (A549 [11]): 31.4 nM
- IC50 (KB [12]): 142 nM
- IC50 [13]: 26 nM

SMILES: CC[C@@](O)(C(=O)NCCN1CCOCC1)c1cc2n(c(=O)c1CO)Cc1c-2nc2ccccc2c1-c1ccccc1
- IC50 (A549 [2]): 100 nM
- IC50 (HT-29 [3]): 100 nM

SMILES: CC[C@]1(OC(=O)CN/C(Cc2ccc(OC)cc2)=N\S(=O)(=O)c2ccc(C)cc2)C(=O)OCc2c1cc1n(c2=O)Cc2cc3ccccc3nc2-1
- IC50 (A549 [11]): 31.4 nM
- IC50 (KB [12]): 142 nM
- IC50 [13]: 26 nM

SMILES: CCc1c2c(nc3ccc(OCc4cn(C(COC(CO)CO)COC(CO)CO)nn4)cc13)-c1cc3c(c(=O)n1C2)COC(=O)[C@@]3(O)CC
- IC50 (A549 [14]): 23 µM
- IC50 (NCI-H1299): 1 mM
- IC50 (NCI-H520): 1500 nM
- IC50 (SBC-5): 4.8 µM
- IC50 [15]: 510 µM
- IC50 (SBC-3): 1700 nM

SMILES: CCc1c2c(nc3ccc(OC(=O)NC(CC(C)C)C(=O)O)cc13)-c1cc3c(c(=O)n1C2)COC(=O)[C@]3(O)CC (stereo partly drawn)
- IC50 (K562): 1620 nM
- IC50 (SK-OV-3): 1 nM
- IC50 [16]: 385 nM
- IC50 (SW 1116): 91 nM
- IC50 (U-251): 1700 nM

SMILES: CC[C@@](O)(C(=O)NCCCN1CCOCC1)c1cc2n(c(=O)c1CO)Cc1c-2nc2ccccc2c1-c1ccccc1
- IC50 (A549 [2]): 10 nM
- IC50 (HT-29 [3]): 10 nM

SMILES: CC[C@@]1(O)C(=O)OCc2c1cc1n(c2=O)Cc2c-1nc1ccccc1c2CN1CCN(C(=S)Nc2cccc3ccccc23)CC1
- IC50 [17]: 275 nM
- IC50 (A549 [18]): 59 nM
- IC50 (MDA-MB-231): 588 nM
- IC50 (KB [19]): 89 nM
- IC50 [20]: 275 nM
- IC50 (MCF7): 789 nM

SMILES: CC[C@@]1(O)C(=O)OCc2c1cc1n(c2=O)Cc2cc3ccccc3nc2-1 [CAMPTOTHECIN]
- IC50 (Jurkat): 100 nM

SMILES: CCc1c2c(nc3ccc(OC(=O)N4CCC(N5CCCCC5)CC4)cc13)-c1cc3c(c(=O)n1C2)COC(=O)[C@]3(O)CC [IRINOTECAN]
- IC50 (A549 [1]): 9140 nM

SMILES: CC[C@@]1(O)C(=O)OCc2c1cc1n(c2=O)Cc2cc3c(CN(C)C)c(O)ccc3nc2-1 [TOPOTECAN HYDROCHLORIDE]
- IC50 [17]: 511 nM
